Measurements reported in the supplement of paper PMC11208160.

Assay: recombinant barcode read abundance after kanamycin selection (control-corrected) (log10(CPM+1)); higher = more efficient recombination; sequences stand for … in AGTGCAGAGAAAATCGGCCAGTTTTCTCTGCCTGCAGTCCGCATGCCGT…AGATTTATGCAGCGGACTGCCTTTCTCCCAAAGTGATAAACCGGACAGTATCATGGACCGGTTTTCCCGGTAATCCGTATTTGCAAGGTTGGTTTCACT; site = the 11-nt target
Procedure: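 Pooled E. coli target-specificity screen for the IS621 bridge recombinase. Each library plasmid pairs an 11-nt target (CT core) with a bridge RNA whose target-binding loop (9-nt LTG + 4-nt RTG) is reprogrammed; the rest of the 177-nt WT IS621 bridge RNA scaffold is fixed. The plasmid is co-electroporated with a WT donor plasmid; recombinase is induced with 0.1 mM IPTG and recombinants are selected on kanamycin. Recombinant barcodes are sequenced, converted to CPM, averaged over two biological replicates and corrected by the unselected control CPM. Molecule = full bridge RNA written as DNA: LTG = specificity nt 1-9, RTG = reverse complement of specificity nt 8-11, in the WT scaffold.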
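Also: IS621 recombinase and bridge RNA in Escherichia coli cells.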

| Sequence | recombinant barcode read abundance (log10) |
| --- | --- |
| AATTGGCCTTGGGTTCTAACCTGTTGCTT (site AATTGGCCTAA) | 0.344 |
| AATTGGCCTTGGGTTCTAACCTGTTGCTT (site GATAGGCCTAA) | 0.37 |
| AATTTAGCTTGGGTTCTAACCTGTTGCCT (site AATTAAGCTAG) | 0.172 |
| AATTTAGCTTGGGTTCTAACCTGTTGCCT (site AATTCAGCTAG) | 0.169 |
| AATTTAGCTTGGGTTCTAACCTGTTGCCT (site AATTGAGCTAG) | 0.0396 |
| AATTTAGCTTGGGTTCTAACCTGTTGCCT (site AATTTAGCTAG) | 0.244 |
| ACAAAACCTTGGGTTCTAACCTGTTGCCT (site ACAAAACCTAG) | 0.171 |
| ACAAAACCTTGGGTTCTAACCTGTTGCCT (site ACAAACCCTAG) | 0.461 |
| ACAAAACCTTGGGTTCTAACCTGTTGCCT (site ACAAAGCCTAG) | 0.0848 |
| ACAAAACCTTGGGTTCTAACCTGTTGCCT (site ACAAATCCTAG) | 0.0655 |
| ACAAAAGCTTGGGTTCTAACCTGTTGCGG (site ACAAAAGCTCC) | 1.59 |
| ACAAAAGCTTGGGTTCTAACCTGTTGCGG (site ACAAAGGCTCC) | 0.514 |
| ACAAAGACTTGGGTTCTAACCTGTTGCCT (site ACAAAGACTAG) | 0.847 |
| ACAAAGACTTGGGTTCTAACCTGTTGCCT (site ACAAGGGCTAG) | 0.0359 |
| ACAACCACTTGGGTTCTAACCTGTTGCCT (site ACAACCACTAG) | 0.235 |
| ACAACCACTTGGGTTCTAACCTGTTGCCT (site ACAACGACTAG) | 0.0258 |
| ACAACCTCTTGGGTTCTAACCTGTTGCCG (site ACAACCTCTCG) | 1.23 |
| ACAACCTCTTGGGTTCTAACCTGTTGCCG (site TAGGGTACTGC) | 0 |
| ACAAGCACTTGGGTTCTAACCTGTTGCCT (site ACAAGCACTAG) | 1.46 |
| ACAAGCACTTGGGTTCTAACCTGTTGCCT (site ACCATCACTAG) | 0.2 |
| ACAAGGGCTTGGGTTCTAACCTGTTGCCT (site ACAAAGACTAG) | 0.261 |

| Sequence | recombinant barcode read abundance (log10) |
| --- | --- |
| ACAAGGGCTTGGGTTCTAACCTGTTGCCT (site ACAAGGGCTAG) | 0.547 |
| ACAAGTCCTTGGGTTCTAACCTGTTGCGG (site ACAAGTCCTCC) | 1.74 |
| ACAAGTCCTTGGGTTCTAACCTGTTGCGG (site ATAAGTCCTTC) | 0.0466 |
| ACAATGTCTTGGGTTCTAACCTGTTGCGG (site ACAATGTCTCC) | 1.27 |
| ACAATGTCTTGGGTTCTAACCTGTTGCGG (site ACACTGTCTCC) | 0.148 |
| ACAATGTCTTGGGTTCTAACCTGTTGCGG (site ACAGTGTCTCC) | 0.192 |
| ACAATGTCTTGGGTTCTAACCTGTTGCGG (site ACATTGTCTCC) | 0.427 |
| ACACACTCTTGGGTTCTAACCTGTTGCTG (site ACACACTCTCA) | 1.97 |
| ACACACTCTTGGGTTCTAACCTGTTGCTG (site ACACTCCCTCA) | 0.0463 |
| ACACCACCTTGGGTTCTAACCTGTTGCCT (site AAACCACCTAG) | 0.585 |
| ACACCACCTTGGGTTCTAACCTGTTGCCT (site ACACCACCTAG) | 0.0741 |
| ACACCACCTTGGGTTCTAACCTGTTGCCT (site AGACCACCTAG) | 0.179 |
| ACACCACCTTGGGTTCTAACCTGTTGCCT (site ATACCACCTAG) | 0.0171 |
| ACACGCCCTTGGGTTCTAACCTGTTGCAC (site ACACGCCCTGT) | 0.333 |
| ACACGCCCTTGGGTTCTAACCTGTTGCAC (site AGACTCCCTGT) | 0.0104 |
| ACACGGCCTTGGGTTCTAACCTGTTGCCG (site ACACGGCCTCG) | 0.428 |
| ACACGGCCTTGGGTTCTAACCTGTTGCCG (site TAGTACGCTAA) | 0.145 |
| ACACTAACTTGGGTTCTAACCTGTTGCCT (site AAACTAACTAG) | 0.071 |
| ACACTAACTTGGGTTCTAACCTGTTGCCT (site ACACTAACTAG) | 0.404 |
| ACACTAACTTGGGTTCTAACCTGTTGCCT (site AGACTAACTAG) | 0.0933 |
| ACACTAACTTGGGTTCTAACCTGTTGCCT (site ATACTAACTAG) | 0 |

| Sequence | recombinant barcode read abundance (log10) |
| --- | --- |
| ACACTGGCTTGGGTTCTAACCTGTTGCCT (site ACACTGGCTAG) | 0.987 |
| ACACTGGCTTGGGTTCTAACCTGTTGCCT (site ACCCTGGCTAG) | 0.0877 |
| ACACTGGCTTGGGTTCTAACCTGTTGCCT (site ACGCTGGCTAG) | 0.025 |
| ACACTGGCTTGGGTTCTAACCTGTTGCCT (site ACTCTGGCTAG) | 0 |
| ACAGAGACTTGGGTTCTAACCTGTTGCAC (site ACAGAGACTGT) | 1.76 |
| ACAGAGACTTGGGTTCTAACCTGTTGCAC (site ACAGAGACTTA) | 0.183 |
| ACAGATTCTTGGGTTCTAACCTGTTGCCT (site ACAGATTCTAG) | 1.73 |
| ACAGATTCTTGGGTTCTAACCTGTTGCCT (site ATAGAGTCTAG) | 0.0143 |
| ACAGGAGCTTGGGTTCTAACCTGTTGCGG (site ACACGACCTCC) | 0.154 |
| ACAGGAGCTTGGGTTCTAACCTGTTGCGG (site ACAGGAGCTCC) | 2.61 |
| ACAGGATCTTGGGTTCTAACCTGTTGCTT (site ACAGAATCTAG) | 0.55 |
| ACAGGATCTTGGGTTCTAACCTGTTGCTT (site ACAGGATCTAA) | 2.18 |
| ACAGGTTCTTGGGTTCTAACCTGTTGCCT (site AAAGGTTCTAG) | 0.0508 |
| ACAGGTTCTTGGGTTCTAACCTGTTGCCT (site ACAGGTTCTAG) | 2.24 |
| ACAGGTTCTTGGGTTCTAACCTGTTGCCT (site AGAGGTTCTAG) | 0.283 |
| ACAGGTTCTTGGGTTCTAACCTGTTGCCT (site ATAGGTTCTAG) | 0.0396 |
| ACAGTAGCTTGGGTTCTAACCTGTTGCCG (site ACAGTAGCTCC) | 0.189 |
| ACAGTAGCTTGGGTTCTAACCTGTTGCCG (site ACAGTAGCTCG) | 0.862 |
| ACATACACTTGGGTTCTAACCTGTTGCCT (site ACATACACTAG) | 0.991 |
| ACATACACTTGGGTTCTAACCTGTTGCCT (site ACCTACCCTAG) | 0.298 |
| ACATCAACTTGGGTTCTAACCTGTTGCCT (site ACATCAACTAG) | 0.807 |

| Sequence | recombinant barcode read abundance (log10) |
| --- | --- |
| ACATCAACTTGGGTTCTAACCTGTTGCCT (site ACCTCAACTAG) | 0.0149 |
| ACATCAACTTGGGTTCTAACCTGTTGCCT (site ACGTCAACTAG) | 0.0953 |
| ACATCAACTTGGGTTCTAACCTGTTGCCT (site ACTTCAACTAG) | 0.0926 |
| ACATCTACTTGGGTTCTAACCTGTTGCTA (site ACATCTACTTA) | 0.145 |
| ACATCTACTTGGGTTCTAACCTGTTGCTA (site ACTTCTACTTA) | 0.0475 |
| ACATGGTCTTGGGTTCTAACCTGTTGCGT (site ACATGGTCTAC) | 2.92 |
| ACATGGTCTTGGGTTCTAACCTGTTGCGT (site ACTGGGTCTAC) | 0.115 |
| ACATGTCCTTGGGTTCTAACCTGTTGCCT (site ACATGTCCTAA) | 0.0846 |
| ACATGTCCTTGGGTTCTAACCTGTTGCCT (site ACATGTCCTAC) | 0.0127 |
| ACATGTCCTTGGGTTCTAACCTGTTGCCT (site ACATGTCCTAG) | 0.828 |
| ACATGTCCTTGGGTTCTAACCTGTTGCCT (site ACATGTCCTAT) | 0.00753 |
| ACATGTCCTTGGGTTCTAACCTGTTGCTT (site ACATGTCCTAA) | 0.333 |
| ACATGTCCTTGGGTTCTAACCTGTTGCTT (site ACATGTCCTAC) | 0.0155 |
| ACATGTCCTTGGGTTCTAACCTGTTGCTT (site ACATGTCCTAG) | 0.136 |
| ACATGTCCTTGGGTTCTAACCTGTTGCTT (site ACATGTCCTAT) | 0.287 |
| ACATGTGCTTGGGTTCTAACCTGTTGCCT (site ACAGGTGCTAG) | 0.0246 |
| ACATGTGCTTGGGTTCTAACCTGTTGCCT (site ACATGTGCTAG) | 1.66 |
| ACATTAGCTTGGGTTCTAACCTGTTGCTG (site ACAATAGCTCA) | 0.182 |
| ACATTAGCTTGGGTTCTAACCTGTTGCTG (site ACACTAGCTCA) | 0.0561 |
